Test results taken from ChEMBL document CHEMBL2113921, “Open Source Malaria Deposition 1. http://malaria.ourexperiment.org” (2013).
In brackets after ≈: the same amount, converted by molar mass.

Legend:
Plasmodium falciparum [1] = assay: OSM: Inhibition of Plasmodium falciparum 3D7 growth. IC50 values determined from 21 point dose response curves. Avery Group Griffith.; assay type: functional, organism-based
Plasmodium falciparum K1 [2] = assay: OSM: Inhibition of Plasmodium falciparum K1 growth. IC50 values determined from 21 point dose response curves. Avery Group Griffith.; assay type: functional, organism-based
[3] = OSM: HEK293 cytotoxicity assay. Duplicate point single experiment at 120 uM. Avery Group, Griffith.; assay type: toxicity, cell-based; details: human, HEK293 cells; read-out: Inhibition
Plasmodium falciparum [4] = assay: OSM: Inhibition of Plasmodium falciparum 3D7 growth using a SYBR green I fluorescence based assay. Dose response curves were generated comprising of 8 points using a 2-fold serial dilution for the maximum final concentration of 1000 nM. Ralph Group, Bio21.; assay type: functional, organism-based
Plasmodium falciparum [5] = assay: OSM: Inhibition of Plasmodium falciparum 3D7 growth using a SYBR green I fluorescence based assay. GSK Tres Cantos.; assay type: functional, organism-based
Plasmodium falciparum [6] = assay: OSM: Percent inhibition of Plasmodium falciparum 3D7 growth at 120 uM. Avery Group Griffith.; assay type: functional
Plasmodium falciparum K1 [7] = assay: OSM: Percent inhibition of Plasmodium falciparum K1 growth at 120 uM. Avery Group Griffith.; assay type: functional
[8] = OSM: Kinetic solubility pH 6.5 isotonic phosphate buffer.; assay type: ADME
[9] = OSM: Microsomal stability: 0.5 uM substrate, 0.4 mg/mL protein, NADPH cofactor. Analysed by LC/MS. Degradation half life (min).; assay type: ADME, Microsome; details: human, microsomes
[10] = OSM: Microsomal stability: 0.5 uM substrate, 0.4 mg/mL protein, NADPH cofactor. Analysed by LC/MS. Degradation rate classification.; assay type: ADME, Microsome; details: human, microsomes
[11] = OSM: Microsomal stability: 0.5 uM substrate, 0.4 mg/mL protein, NADPH cofactor). Analysed by LC/MS. In vitro CLint (uL/min/mg protein).; assay type: ADME, Microsome; details: human, microsomes

C[C@@H]1CC[C@H]2[C@@H](C)C(=O)O[C@@H]3O[C@@]4(C)CC[C@@H]1[C@]32OO4 [ARTEMISININ]
IC50 (Plasmodium falciparum [1]): 41.1 µM
IC50 (Plasmodium falciparum K1 [2]): 0.001 µM
cytotoxicity at 120 µM [3]: 25%

CN(C)C(=O)n1cnc(SCc2ccccc2)n1
IC50 (Plasmodium falciparum [1]): 0.438 µM

Cc1cc(C(=O)NCC(=O)Nc2c(C)n(C)n(-c3ccccc3)c2=O)c(C)n1-c1ccc(F)cc1
IC50 (Plasmodium falciparum [4]): > 1 µM
IC50 (Plasmodium falciparum [1]): 31 µM
IC50 (Plasmodium falciparum [5]): > 5 µM

Cc1cc(C(=O)O)c(C)n1-c1ccc(F)cc1
inhibition at 120 µM (Plasmodium falciparum [6]): 75%
cytotoxicity at 120 µM [3]: 20%
inhibition at 120 µM (Plasmodium falciparum K1 [7]): 50%
IC50 (Plasmodium falciparum [5]): > 5 µM

Cc1cc(CNCC(N)=O)c(C)n1-c1ccc(F)cc1
IC50 (Plasmodium falciparum [1]): > 40 µM

Cc1cc(/C=C2\S/C(=N\c3ccccc3)N(c3ccccc3)C2=O)c(C)n1-c1ccc(C(F)(F)F)cc1
IC50 (Plasmodium falciparum [4]): 0.485 µM
IC50 (Plasmodium falciparum [1]): 0.054 µM
IC50 (Plasmodium falciparum [5]): 0.372 µM

COC(=O)c1sccc1NC=O
IC50 (Plasmodium falciparum [1]): > 40 µM

NC(=O)COC(=O)c1cnn(-c2ccc(F)cc2)c1
IC50 (Plasmodium falciparum [1]): > 40 µM

CC(=O)N(C1=NC(=O)/C(=C/c2cc(C)n(-c3ccc(C)cc3)c2C)S1)c1ccccc1
IC50 (Plasmodium falciparum [4]): 0.156 µM
IC50 (Plasmodium falciparum [1]): 0.326 µM
IC50 (Plasmodium falciparum [5]): 0.025 µM

CCOC(=O)c1cc(C)n(-c2ccccc2)c1C
inhibition at 120 µM (Plasmodium falciparum [6]): 80%
cytotoxicity at 120 µM [3]: 0%
inhibition at 120 µM (Plasmodium falciparum K1 [7]): 0%

COC(=O)[C@H](CO)NC(=O)c1cc(C)n(-c2ccc(F)cc2)c1C
IC50 (Plasmodium falciparum [1]): > 40 µM

CNC(=O)CN1CCC(NCc2cc(C)n(-c3ccc(Cl)cc3)c2C)CC1
IC50 (Plasmodium falciparum [1]): 14.7 µM

Cc1cc(C(=O)N2CCNC(=O)C2)c(C)n1-c1ccccc1
IC50 (Plasmodium falciparum [1]): > 40 µM

Cc1cc(/C=C2\S/C(=N\c3ccccc3)N(CC#N)C2=O)c(C)n1-c1ccc(C(F)(F)F)cc1
IC50 (Plasmodium falciparum [4]): > 1 µM
IC50 (Plasmodium falciparum [1]): 3.12 µM
IC50 (Plasmodium falciparum [5]): > 5 µM

CNC(=O)CCC(=O)c1cc(C)n(-c2ccc(F)cc2)c1C
IC50 (Plasmodium falciparum [1]): > 40 µM

Cc1cc(C(=O)N(C(=O)NC2CCCCC2)C2CCCCC2)c(C)n1-c1ccc(F)cc1
IC50 (Plasmodium falciparum [1]): 7.8 µM

Oc1ncnc2cc(I)sc12
IC50 (Plasmodium falciparum [1]): > 40 µM

Cc1cc(C(=O)N(C)CC(N)=O)c(C)n1-c1ccc(F)cc1
IC50 (Plasmodium falciparum [1]): > 40 µM

CC(Nc1ncnc2ccsc12)c1cccc(S(N)(=O)=O)c1 (configuration not stated)
IC50 (Plasmodium falciparum [1]): > 40 µM

Cc1c(-c2nc(C(=O)O)co2)cnn1-c1ccc(F)cc1
IC50 (Plasmodium falciparum [1]): > 40 µM

COC(=O)c1coc(-c2cc(C)n(-c3ccc(F)cc3)c2C)n1
IC50 (Plasmodium falciparum [1]): > 40 µM

CCOC(=O)c1cc(C)n(-c2ccc(F)cc2)c1C
IC50 (Plasmodium falciparum [1]): 12 µM
IC50 (Plasmodium falciparum K1 [2]): 12.4 µM
cytotoxicity at 120 µM [3]: 25%
IC50 (Plasmodium falciparum [5]): > 5 µM

Cc1cc(-c2nc(C(=O)O)co2)c(C)n1-c1ccc(F)cc1
IC50 (Plasmodium falciparum [1]): > 40 µM

Cc1cc(C(=O)NCC(=O)N(C)C)c(C)n1-c1ccccc1
IC50 (Plasmodium falciparum [1]): > 40 µM

CCOC(=O)c1cc(C)n(-c2ccc(C(F)(F)F)cc2)c1C
inhibition at 120 µM (Plasmodium falciparum [6]): 85%
cytotoxicity at 120 µM [3]: 75%
inhibition at 120 µM (Plasmodium falciparum K1 [7]): 20%

CCN(CC(=O)Nc1c(F)cccc1F)C(=O)c1cc(C)n(-c2ccc(F)cc2)c1C
IC50 (Plasmodium falciparum [1]): > 40 µM

COc1ccc(S(=O)(=O)N2CCC(Nc3ncnc4ccsc34)CC2)cc1
IC50 (Plasmodium falciparum [1]): > 40 µM

Cc1cc(C(=O)OCC(=O)N(C)C)c(C)n1-c1ccc(F)cc1
IC50 (Plasmodium falciparum [1]): 11.3 µM

Cc1ccc(-n2c(C)cc(/C=C3\S/C(=N\c4ccccc4)NC3=O)c2C)cc1
solubility kinetic [8]: 2 µg/mL (≈ 5.16 µM)
half-life at 0.5 µM [9]: > 4.08 h
IC50 (Plasmodium falciparum [4]): 0.009 µM
IC50 (Plasmodium falciparum [1]): 0.015 µM
IC50 (Plasmodium falciparum [5]): 0.028 µM
Relative metabolic rate [10]: Low
microsomal CLint at 0.5 µM [11]: < 7 µL/min/mg

CCOc1ccc(Nc2ncnc3ccsc23)cc1S(=O)(=O)N(C)C
IC50 (Plasmodium falciparum [1]): > 40 µM

CNC(=O)COC(=O)c1cc(C)n(-c2ccc(F)cc2)c1C
IC50 (Plasmodium falciparum [1]): 9.4 µM

Cc1cc(C(=O)OC(C)(C)C(N)=O)c(C)n1-c1ccc(F)cc1
IC50 (Plasmodium falciparum [1]): > 40 µM

COC(=O)[C@@H]1COC(c2cc(C)n(-c3ccc(F)cc3)c2C)=N1
IC50 (Plasmodium falciparum [1]): > 40 µM

Clc1ncnc2ccsc12
IC50 (Plasmodium falciparum [1]): 9.4 µM

NS(=O)(=O)c1cccc(CNc2ncnc3ccsc23)c1
IC50 (Plasmodium falciparum [1]): > 40 µM

Cc1cc(/C=C2\SC(N(CC#N)c3ccccc3)=NC2=O)c(C)n1-c1ccc(C(F)(F)F)cc1
IC50 (Plasmodium falciparum [4]): > 1 µM
IC50 (Plasmodium falciparum [5]): > 5 µM

NS(=O)(=O)c1ccc(CNc2nc(-c3ccsc3)nc3ccccc23)cc1
IC50 (Plasmodium falciparum [1]): > 40 µM

c1ccc(CSc2nc[nH]n2)cc1
IC50 (Plasmodium falciparum [1]): > 40 µM

Cc1cc(C(=O)CCC(=O)N(C)C)c(C)n1-c1ccc(F)cc1
IC50 (Plasmodium falciparum [1]): > 40 µM

C[C@H]1[C@H](OC(=O)CCC(=O)O)O[C@@H]2O[C@@]3(C)CC[C@H]4[C@H](C)CC[C@@H]1[C@@]24OO3 [ARTESUNATE]
IC50 (Plasmodium falciparum [5]): 0.019 µM

Cc1cc(C(=O)N(C)C)c(C)n1-c1ccc(F)cc1
IC50 (Plasmodium falciparum [1]): > 40 µM

O=S(=O)(Nc1ncnc2sc(-c3ccccc3)cc12)c1ccccc1
IC50 (Plasmodium falciparum [1]): > 40 µM

O=C1C(O)=C([C@H]2CC[C@H](c3ccc(Cl)cc3)CC2)C(=O)c2ccccc21 [ATOVAQUONE]
IC50 (Plasmodium falciparum [5]): 0.001 µM

CNS(=O)(=O)c1ccc(CNc2ncnc3cc(-c4ccc(OC)cc4)sc23)s1
IC50 (Plasmodium falciparum [1]): 17.6 µM

Cc1cc(CNC2CCN(Cc3ccccc3)CC2)c(C)n1-c1ccc(F)cc1
IC50 (Plasmodium falciparum [1]): 4.8 µM

Nc1ncnc2ccsc12
IC50 (Plasmodium falciparum [1]): > 40 µM

CC(=O)N(C1=NC(=O)/C(=C/c2cc(C)n(-c3ccccc3)c2C)S1)c1ccccc1
IC50 (Plasmodium falciparum [4]): 0.028 µM
IC50 (Plasmodium falciparum [1]): 0.063 µM
IC50 (Plasmodium falciparum [5]): 0.085 µM

Cc1cc(C=O)c(C)n1-c1ccccc1
inhibition at 120 µM (Plasmodium falciparum [6]): 55%
cytotoxicity at 120 µM [3]: 25%
inhibition at 120 µM (Plasmodium falciparum K1 [7]): 80%

CCOC(=O)c1cc(C)n(-c2ccc(C)cc2)c1C
inhibition at 120 µM (Plasmodium falciparum [6]): 85%
cytotoxicity at 120 µM [3]: 0%
inhibition at 120 µM (Plasmodium falciparum K1 [7]): 50%

COc1cccc(NC(=O)CSc2nnc(-c3cc(C)n(-c4ccccc4)c3C)o2)c1
IC50 (Plasmodium falciparum [1]): > 40 µM

Cc1cc(C(=O)CCC(=O)O)c(C)n1-c1ccc(F)cc1
IC50 (Plasmodium falciparum [1]): > 40 µM

Cc1c(C(=O)OCC(N)=O)cnn1-c1ccccc1
IC50 (Plasmodium falciparum [1]): > 40 µM

COC(=O)c1coc(-c2cnn(-c3ccc(F)cc3)c2C)n1
IC50 (Plasmodium falciparum [1]): > 40 µM

CCc1ccc(-n2c(C)cc(CN3CCC(C(=O)O)CC3)c2C)cc1
IC50 (Plasmodium falciparum [1]): > 40 µM

Cc1cc(C=O)c(C)n1-c1ccc(F)cc1
inhibition at 120 µM (Plasmodium falciparum [6]): 60%
cytotoxicity at 120 µM [3]: 25%
inhibition at 120 µM (Plasmodium falciparum K1 [7]): 50%
IC50 (Plasmodium falciparum [5]): > 5 µM

Cc1ccc(Nc2ncnc3ccsc23)cc1S(=O)(=O)N(C)C
IC50 (Plasmodium falciparum [1]): > 40 µM

CCOC(=O)c1ccc(-n2c(C)cc(/C=C3\S/C(=N/c4ccccc4)NC3=O)c2C)cc1
IC50 (Plasmodium falciparum [4]): 0.339 µM
IC50 (Plasmodium falciparum [1]): 0.169 µM
IC50 (Plasmodium falciparum [5]): 0.267 µM

CN(C)C(=O)n1cnc(S(=O)(=O)N(C)c2ccccc2)n1
IC50 (Plasmodium falciparum [1]): 0.333 µM

Cc1cc(C(=O)O)c(C)n1-c1ccccc1
inhibition at 120 µM (Plasmodium falciparum [6]): 70%
cytotoxicity at 120 µM [3]: 0%
inhibition at 120 µM (Plasmodium falciparum K1 [7]): 50%

Cc1cc(/C=C2\S/C(=N\c3ccccc3)NC2=O)c(C)n1-c1ccccn1
IC50 (Plasmodium falciparum [4]): 0.442 µM
IC50 (Plasmodium falciparum [1]): 0.307 µM
IC50 (Plasmodium falciparum [5]): 0.309 µM

CCOC(=O)C(C)OC(=O)c1cc(C)n(-c2ccc(F)cc2)c1C (configuration not stated)
IC50 (Plasmodium falciparum [1]): > 40 µM

CCNC(=O)C1CC(N)CN1Cc1cc(C)n(-c2ccccc2Cl)c1C (configuration not stated)
IC50 (Plasmodium falciparum [1]): 24.7 µM

Cc1cc(C(=O)OC(C)C(=O)O)c(C)n1-c1ccc(F)cc1 (configuration not stated)
IC50 (Plasmodium falciparum [1]): > 40 µM

Cc1c(-c2nc(C(N)=O)co2)cnn1-c1ccc(F)cc1
IC50 (Plasmodium falciparum [1]): > 40 µM

Cc1cc(CN(C)CC(N)=O)c(C)n1-c1ccc(F)cc1
IC50 (Plasmodium falciparum [1]): > 40 µM

Cc1ccc(-n2c(C)cc(C(=O)O)c2C)cc1
inhibition at 120 µM (Plasmodium falciparum [6]): 70%
cytotoxicity at 120 µM [3]: 0%
inhibition at 120 µM (Plasmodium falciparum K1 [7]): 0%

c1nc(N2CCOCC2)c2sccc2n1
IC50 (Plasmodium falciparum [1]): > 40 µM

CC(=O)N(C1=NC(=O)/C(=C/c2cc(C)n(-c3ccc(C(F)(F)F)cc3)c2C)S1)c1ccccc1
IC50 (Plasmodium falciparum [4]): 0.008 µM
IC50 (Plasmodium falciparum [1]): 0.012 µM
IC50 (Plasmodium falciparum [5]): 0.026 µM

Cc1cc(C(=O)O)c(C)n1-c1ccc(C(F)(F)F)cc1
inhibition at 120 µM (Plasmodium falciparum [6]): 25%
cytotoxicity at 120 µM [3]: 0%
inhibition at 120 µM (Plasmodium falciparum K1 [7]): 0%
